Reference: patent publication US9193714B2, “Fluorinated estrogen receptor modulators and uses thereof” (priority 2011, dated 2015)
Where two headings read alike, the source gives them in different places.

Legend:
[1] = target: T1, ER-α (Homo sapiens, UniProt P03372); assay: Breast Cancer Cell ER-α in Cell Western Assay (SP1); type: cell-based; details: MCF7, read-out: ER In-Cell Western Assay (SP1); Max Response
T1 construct: endogenous in cells; host or cells: MCF-7
Procedure: MCF-7 cells were adjusted to a concentration of 200,000 cells per mL in RPMI containing 10% charcoal-stripped FBS and 20 mM HEPES. 16 microliters of the cell suspension (3200 cells) was added to each well of a poly-D-lysine 384 well plate, and the cells were incubated overnight to allow the cells to adhere. The following day an eleven point, serial semilog dilution of each compound was added to the cells in 16 μL at a final concentration ranging from 0.3-0.000003 μM. At 4 or 24 hr post compound addition, the cells were fixed (10% formalin in PBS) for 20 minutes. Cells were permeablized in PBS 0.1% Triton and blocked with LICOR blocking buffer (50 μl/well, 90′). The wells were then incubated overnight at 4° C. with SP1 rabbit monoclonal Ab (Thermo Scientific) diluted 1:1000 in LICOR blocking buffer/0.1% Tween-20. Wells which were treated with blocking buffer with Tween but no antibody were used as a background control. Wells were washed with 0.1% Tween-20/PBS and then incubated in goat anti-rabbit IRDye™ 800 CW (LICOR Inc.; 1:1000) and DRAQ5 DNA dye (1:2000 for 2 mM stock) diluted in LICOR blocking buffer containing 0.1% Tween-20 and 0.01% SDS for 60 minutes. Cells were washed (50 μl/well, 5′ each) in 0.1% Tween-20/PBS. Plates were scanned on a LICOR Odyssey infrared imaging system. Integrated intensities in the 800 nm channel and 700 nm channel were measured to determine levels of ER and DNA respectively. Percent ER levels were determined as follows: (Integrated intensity 800 nm sample/integrated intensity 700 nm sample)/(Integrated intensity 800 nm untreated cells/integrated intensity 700 nm untreated cells)×100=% ER levels.

[2] = tested on: MCF-7 cells; assay: Breast Cancer Cell Viability Assay (MCF7 Viability Assay); type: cell-based; details: for IC50: Homo sapiens, MCF7, 120 h, read-out: MCF7 Viability Assay IC50
Procedure: MCF-7 cells were adjusted to a concentration of 20,000 cells per mL in RPMI containing 10% FBS and 20 mM HEPES. 16 microliters of the cell suspension (320 cells) was added to each well of a 384 well plate, and the cells were incubated overnight to allow the cells to adhere. The following day an eleven point, serial semilog dilution of each compound was added to the cells in 16 μL at a final concentration ranging from 0.3-0.000003 μM. After 5 days' compound exposure, 16 μL of CellTiter-GLo (Promega, Madison Wis.) was added to the cells the relative luminescence units (RLUs) of each well was determined. CellTiter-Glo added to 32 μL of medium without cells was used to obtain a background value. The Percent viability of each sample was determined as follows: (RLU sample-RLU background/RLU untreated cells-RLU background)×100=% viability.

[3] = MCF-7 cells, 5 days' compound exposure, CellTiter-Glo

T1 sequence (P03372 whole entry): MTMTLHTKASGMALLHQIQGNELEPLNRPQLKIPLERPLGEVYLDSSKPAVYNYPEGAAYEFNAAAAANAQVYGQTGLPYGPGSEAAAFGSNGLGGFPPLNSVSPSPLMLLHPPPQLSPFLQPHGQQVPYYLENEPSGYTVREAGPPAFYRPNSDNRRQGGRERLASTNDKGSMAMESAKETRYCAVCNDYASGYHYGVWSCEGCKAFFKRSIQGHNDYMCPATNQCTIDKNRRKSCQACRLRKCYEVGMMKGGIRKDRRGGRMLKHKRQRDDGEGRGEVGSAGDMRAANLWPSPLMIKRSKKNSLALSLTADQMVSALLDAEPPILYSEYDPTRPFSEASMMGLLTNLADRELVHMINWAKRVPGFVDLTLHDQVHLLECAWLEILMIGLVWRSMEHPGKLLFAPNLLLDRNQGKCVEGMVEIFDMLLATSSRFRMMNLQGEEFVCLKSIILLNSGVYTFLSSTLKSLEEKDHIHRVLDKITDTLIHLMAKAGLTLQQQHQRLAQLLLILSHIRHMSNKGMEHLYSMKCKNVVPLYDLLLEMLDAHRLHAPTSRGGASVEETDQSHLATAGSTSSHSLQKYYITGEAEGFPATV

| IC50 [2] | Structure (SMILES) | Emax [1] | IC50 [2, 3] | MCF7 Viability Assay Max Response [2, 3] |
| --- | --- | --- | --- | --- |
|  | CC1=C(c2cccc(O)c2)C(c2ccc(OCCN3CCC(F)CC3)cc2)Oc2ccc(O)cc21 (stereo not shown) [Example 17, 2-(4-(2-(4-Fluoropiperidin-1-yl)ethoxy)phenyl)-3-(3-hydroxyphenyl)-4-methyl-2H-chromen-6-ol] | 60 to 85% | < 1 nM | ++ (a single % value ≧ 50%) |
|  | CCN(CCF)CCOc1ccc(C2Oc3ccc(O)cc3C(C)=C2c2cccc(O)c2)cc1 (stereo not shown) [Example 23, 2-(4-(2-(Ethyl(2-fluoroethyl)amino)ethoxy)phenyl)-3-(3-hydroxyphenyl)-4-methyl-2H-chromen-6-ol] | < 60% | > 1 nM | ++ (a single % value ≧ 50%) |
| < 1 nM | CC1=C(c2cccc(O)c2)C(c2ccc(OCCN3CC(CF)C3)cc2)Oc2ccc(O)cc21 (stereo not shown) [Example 1, 2-(4-(2-(3-(Fluoromethyl)azetidin-1-yl)ethoxy)phenyl)-3-(3-hydroxyphenyl)-4-methyl-2H-chromen-6-ol] | > 85% |  | ++ (a single % value ≧ 50%) |
|  | CC1=C(c2ccc(O)c(F)c2)C(c2ccc(OCCN3CC[C@@H](CF)C3)cc2)Oc2ccc(O)cc21 (stereo partly drawn) [Example 5, 3-(3-Fluoro-4-hydroxyphenyl)-2-(4-(2-((R)-3-(fluoromethyl)pyrrolidin-1-yl)ethoxy)phenyl)-4-methyl-2H-chromen-6-ol] | > 85% | < 1 nM | ++ (a single % value ≧ 50%) |
|  | Cc1c(-c2ccc(O)cc2)n(Cc2ccc(OCCN3CC[C@@H](CF)C3)cc2)c2ccc(O)cc12 [Example 28, (R)-1-(4-(2-(3-(Fluoromethyl)pyrrolidin-1-yl)ethoxy)benzyl)-2-(4-hydroxyphenyl)-3-methyl-1H-indol-5-ol] | > 85% | < 1 nM | ++ (a single % value ≧ 50%) |
|  | CC1=C(c2ccc(F)c(O)c2)C(c2ccc(OCCN3CC[C@@H](CF)C3)cc2)Oc2ccc(O)cc21 (stereo partly drawn) [Example 8, 3-(4-Fluoro-3-hydroxyphenyl)-2-(4-(2-((R)-3-(fluoromethyl)pyrrolidin-1-yl)ethoxy)phenyl)-4-methyl-2H-chromen-6-ol] | > 85% | > 1 nM | ++ (a single % value ≧ 50%) |
|  | CC1=C(c2cccc(O)c2)C(c2ccc(OCCN3CCC(CF)CC3)cc2)Oc2ccc(O)cc21 (stereo not shown) [Example 19, 2-(4-(2-(4-(Fluoromethyl)piperidin-1-yl)ethoxy)phenyl)-3-(3-hydroxyphenyl)-4-methyl-2H-chromen-6-ol] | 60 to 85% |  |  |
|  | CC1=C(c2ccc(F)c(O)c2)C(c2ccc(OC[C@H](C)N3CC[C@@H](CF)C3)cc2)Oc2ccc(O)cc21 (stereo partly drawn) [Example 11, 3-(4-Fluoro-3-hydroxyphenyl)-2-(4-((S)-2-((R)-3-(fluoromethyl)pyrrolidin-1-yl)propoxy)phenyl)-4-methyl-2H-chromen-6-ol] | > 85% | < 1 nM | ++ (a single % value ≧ 50%) |
|  | CC1=C(c2ccc(F)cc2)C(c2ccc(OCCN3CC[C@@H](CF)C3)cc2)Oc2ccc(O)cc21 (stereo partly drawn) [Example 26, 2-(4-(2-((R)-3-(Fluoromethyl)pyrrolidin-1-yl)ethoxy)phenyl)-3-(4-fluorophenyl)-4-methyl-2H-chromen-6-ol] | > 85% | > 1 nM | ++ (a single % value ≧ 50%) |
|  | CC1=C(c2ccc(Cl)cc2)C(c2ccc(OCCN3CC[C@@H](CF)C3)cc2)Oc2ccc(O)cc21 (stereo partly drawn) [Example 4, 3-(4-Chlorophenyl)-2-(4-(2-((R)-3-(fluoromethyl)pyrrolidin-1-yl)ethoxy)phenyl)-4-methyl-2H-chromen-6-ol] | > 85% | > 1 nM | ++ (a single % value ≧ 50%) |
| > 1 nM | CC1=C(c2cccc(O)c2)[C@@H](c2ccc(OC[C@H](C)N3CC[C@@H](CF)C3)cc2)Oc2ccc(O)cc21 (single isomer, unassigned) [Example 3a] | > 85% |  | ++ (a single % value ≧ 50%) |
| < 1 nM | CC1=C(c2cccc(O)c2)C(c2ccc(OCCN3CC[C@@H](C(F)F)C3)cc2)Oc2ccc(O)cc21 (stereo partly drawn) [Example 21, (R)-2-(4-(2-(3-(Difluoromethyl)pyrrolidin-1-yl)ethoxy)phenyl)-3-(3-hydroxyphenyl)-4-methyl-2H-chromen-6-ol] | > 85% |  | ++ (a single % value ≧ 50%) |
| < 1 nM | CC1=C(c2cccc(O)c2)[C@H](c2ccc(OC[C@H](C)N3CC[C@@H](CF)C3)cc2)Oc2ccc(O)cc21 (single isomer, unassigned) [Example 3b] | > 85% |  | ++ (a single % value ≧ 50%) |
| < 1 nM | CC1=C(c2cccc(O)c2)[C@H](c2ccc(OCCN3CC[C@@H](CF)C3)cc2)Oc2ccc(O)cc21 (single isomer, unassigned) [Example 2b] | > 85% |  | ++ (a single % value ≧ 50%) |
|  | CC1=C(c2cccc(O)c2)C(c2ccc(OCCN3CCC[C@@H](CF)C3)cc2)Oc2ccc(O)cc21 (stereo partly drawn) [Example 20, 2-(4-(2-((R)-3-(Fluoromethyl)piperidin-1-yl)ethoxy)phenyl)-3-(3-hydroxyphenyl)-4-methyl-2H-chromen-6-ol] | < 60% | < 1 nM | + (a single % value < 50%) |
|  | CC1=C(c2cc(O)ccc2F)C(c2ccc(OCCN3CC[C@@H](CF)C3)cc2)Oc2ccc(O)cc21 (stereo partly drawn) [Example 7, 3-(2-Fluoro-5-hydroxyphenyl)-2-(4-(2-((R)-3-(fluoromethyl)pyrrolidin-1-yl)ethoxy)phenyl)-4-methyl-2H-chromen-6-ol] | > 85% | < 1 nM | ++ (a single % value ≧ 50%) |
|  | CCN(CCOc1ccc(C2Oc3ccc(O)cc3C(C)=C2c2cccc(O)c2)cc1)CCC(F)(F)F (stereo not shown) [Example 25, 2-(4-(2-(Ethyl(3,3,3-trifluoropropyl)amino)ethoxy)phenyl)-3-(3-hydroxyphenyl)-4-methyl-2H-chromen-6-ol] | < 60% | > 1 nM | + (a single % value < 50%) |
| < 1 nM | CC1=C(c2cccc(O)c2)C(c2ccc(OC[C@H](C)N3CC[C@@H](CF)C3)cc2)Oc2ccc(O)cc21 (stereo partly drawn) [Example 3, 2-(4-((S)-2-((R)-3-(Fluoromethyl)pyrrolidin-1-yl)propoxy)phenyl)-3-(3-hydroxyphenyl)-4-methyl-2H-chromen-6-ol] | > 85% |  | ++ (a single % value ≧ 50%) |
|  | CC1=C(c2cccc(O)c2)C(c2ccc(OCCN(C)CCCF)cc2)Oc2ccc(O)cc21 (stereo not shown) [Example 22, 2-(4-(2-((3-Fluoropropyl)(methyl)amino)ethoxy)phenyl)-3-(3-hydroxyphenyl)-4-methyl-2H-chromen-6-ol] | < 60% | < 1 nM | + (a single % value < 50%) |
|  | CCN(CCCF)CCOc1ccc(C2Oc3ccc(O)cc3C(C)=C2c2cccc(O)c2)cc1 (stereo not shown) [Example 24, 2-(4-(2-(Ethyl(3-fluoropropyl)amino)ethoxy)phenyl)-3-(3-hydroxyphenyl)-4-methyl-2H-chromen-6-ol] | < 60% | < 1 nM | ++ (a single % value ≧ 50%) |
|  | CC1=C(c2cc(O)cc(F)c2)C(c2ccc(OCCN3CC[C@@H](CF)C3)cc2)Oc2ccc(O)cc21 (stereo partly drawn) [Example 10, 3-(3-Fluoro-5-hydroxyphenyl)-2-(4-(2-((R)-3-(fluoromethyl)pyrrolidin-1-yl)ethoxy)phenyl)-4-methyl-2H-chromen-6-ol] | > 85% | < 1 nM | ++ (a single % value ≧ 50%) |
|  | CC1=C(c2cc(O)cc(F)c2)C(c2ccc(OC[C@H](C)N3CC[C@@H](CF)C3)cc2)Oc2ccc(O)cc21 (stereo partly drawn) [Example 12, 3-(3-Fluoro-5-hydroxyphenyl)-2-(4-((S)-2-((R)-3-(fluoromethyl)pyrrolidin-1-yl)propoxy)phenyl)-4-methyl-2H-chromen-6-ol] | > 85% | < 1 nM | ++ (a single % value ≧ 50%) |
